The values that follow come from US9944654B2, “Nargenicin compounds and uses thereof as antibacterial agents” (priority 2014, dated 2018).

Values after ≈ are worked out from the molar mass of the structure shown. Where two headings read alike, the source gives them in different places. A value given as a limit tells only on which side of the number the result lay.

One may read the IC50 as the concentration that inhibits the measured activity by half.

Assay [1] has as its target T1, E. coli DnaE (DNA polymerase III α-subunit from Escherichia coli) (Escherichia coli, UniProt P10443).
T1 construct: EcDnaE (E. coli DnaE residues 1-1160); 6xHis (N); made in house; host or cells: E. coli BL21(DE3)
The experiment in a line: In vitro DnaE single enzyme assay (E. coli). The note with it: E. coli DnaE IC50. Format: biochemical. As for the experimental part:
(§1) Plasmids encoding EcDnaE (E. coli DnaE residues 1-1160) and SaDnaE (S. aureus DnaE residues 1-1065) with 6×His N-terminal tags, were overexpressed in BL21(DE3) and BL21-AI cells (Invitrogen), respectively. Cells were grown in LB media to an OD ˜0.45 pelleted and then resuspended in Minimal Media, as described in Pryor et al. (1997, Protein Expr Purif. 10:309-19), and inducer (0.4 mM IPTG or 0.2% arabinose) for 21 hours at 18° C. at 220 rpm. Cells were then harvested, frozen for 20 minutes at −80° C. and thawed. Pellets were resuspended in 1× Talon buffer (50 mM Sodium Phosphate, 300 mM Sodium Chloride, pH 7.4) +10% glycerol +Roche PI's (-EDTA). Cells were lysed with two passes through a French press, then centrifuged for 45 minutes at 40,000 rpm (70Ti, Beckman). Supernatant was bound to 5 mL TALON resin (CLONTECH) for 1 hour at room temperature on Nutator. TALON resin was washed with 10 mM imidizole, and DnaE was eluted with 250 mM imidizole. Eluate was concentrated and run on a size exclusion column (SEC200, GE Healthcare) in the following buffer; 25 mM HEPES, 30 mM NaCl,1 mM CaCl2, 5% glycerol, pH 7.9. Pool SEC fractions based on SDS-PAGE run, aliquot, freeze, and store at -80° C.
(§2) DnaE was diluted in 50 mM potassium phosphate pH 7.5, 5 mM BME, 10% glycerol and 200 mM NaCl prior to use.
(§3) The purpose of the DnaE single enzyme assay is to determine the ability of compounds to inhibit the DNA polymerase III α-subunit homolog from Staphylococcus aureus or the α-subunit from Escherichia coli without the other components of the replication machinery. The DnaE single enzyme assay was a modified version of the method, Standard Pol III Assay Using Activated DNA and Four dNTPs, described by Butler et al., 2008, Methods in Molecular Medicine: New Antibiotic Targets 142:25-36. Briefly, in 96-well plates, enzyme was added to a mixture containing 30 mM Tris-HCl pH 7.5, 20% glycerol, 4 mM DTT, 10 mM Mg acetate, 0.025 mM dATP, 0.025 mM dGTP, 0.025 mM dc:TP, 0.011 mM ^3H-dTTP 1 mCi/ml (Perkin-Elmer), and 0.298 mg/mL Dnase I (Sigma) treated “activated” Calf Thymus DNA (Worthington Biochemical). The assay was set up so that 5 μl of compound was distributed to the plates, 90 μl of reaction mix was added to the compound, and 5 μl of enzyme was added to start the reaction. Assays were initiated by the addition of 0.8 μg/ml E. coli or 0.05 μg/ml S. aureus DnaE, incubated for 30 min at 30° C., and terminated by the addition of a 20% trichloroacetic acid and 0.2% sodium pyrophosphate solution. Precipitated labeled DNA was collected on Glass-fiber Filtermat A using Micro96 Harvester, and the filters were washed, dried, and counted in a Microbeta Trilux (Perkin Elmer). Serial dilutions of compounds (in DMSO) were added to the plates before enzyme addition.

For assay [2], the target named is T2, S. aureus DnaE (DNA polymerase III α-subunit homolog from Staphylococcus aureus) (Staphylococcus aureus, UniProt Q5HF71).
T2 construct: SaDnaE (S. aureus DnaE residues 1-1065); 6xHis (N); made in house; host or cells: E. coli BL21-AI
T2 sequence (Q5HF71 1-1065): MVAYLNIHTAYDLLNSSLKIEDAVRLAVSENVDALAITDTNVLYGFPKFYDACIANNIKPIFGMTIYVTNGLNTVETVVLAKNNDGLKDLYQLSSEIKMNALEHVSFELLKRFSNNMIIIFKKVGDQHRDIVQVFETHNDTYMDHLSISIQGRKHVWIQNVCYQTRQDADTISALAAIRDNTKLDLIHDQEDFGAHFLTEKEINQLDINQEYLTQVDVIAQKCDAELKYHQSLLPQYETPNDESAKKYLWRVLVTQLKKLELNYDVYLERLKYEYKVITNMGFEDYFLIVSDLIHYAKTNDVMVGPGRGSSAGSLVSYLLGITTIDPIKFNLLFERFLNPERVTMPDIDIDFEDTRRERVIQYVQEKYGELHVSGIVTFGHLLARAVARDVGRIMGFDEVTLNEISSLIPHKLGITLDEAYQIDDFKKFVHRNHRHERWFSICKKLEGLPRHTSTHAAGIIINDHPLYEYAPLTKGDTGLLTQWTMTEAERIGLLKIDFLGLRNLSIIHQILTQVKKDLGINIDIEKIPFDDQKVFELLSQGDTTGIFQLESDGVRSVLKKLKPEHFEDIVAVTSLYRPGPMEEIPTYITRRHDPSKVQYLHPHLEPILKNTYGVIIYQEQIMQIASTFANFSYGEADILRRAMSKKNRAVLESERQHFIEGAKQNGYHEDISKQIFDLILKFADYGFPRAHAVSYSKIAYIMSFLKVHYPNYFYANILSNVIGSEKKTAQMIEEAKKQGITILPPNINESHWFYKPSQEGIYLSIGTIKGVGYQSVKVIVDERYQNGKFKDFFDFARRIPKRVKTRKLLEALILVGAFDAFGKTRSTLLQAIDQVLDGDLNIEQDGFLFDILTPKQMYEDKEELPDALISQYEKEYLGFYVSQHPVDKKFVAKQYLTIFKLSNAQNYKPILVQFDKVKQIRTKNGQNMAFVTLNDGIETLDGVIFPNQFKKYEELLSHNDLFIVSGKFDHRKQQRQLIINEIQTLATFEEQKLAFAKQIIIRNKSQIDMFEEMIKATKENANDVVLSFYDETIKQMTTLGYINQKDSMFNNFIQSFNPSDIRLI
The experiment in a line: biochemical. Format: biochemical. As for the experimental part: as §1, §2, §3

In assay [3] the test system is Escherichia coli MB5747 (LS 883, tolC). Description: microbe, parasite or virus in culture. Format: cell-based. Conditions: Escherichia coli, read-out: E. coli LS883 tolC (MIC), MHII broth; * = some reduction of growth versus control at […].
The test system of assay [4] is Pseudomonas aeruginosa MB5890 (CB1101, efflux-deleted). Description: microbe, parasite or virus in culture. The note with it: Pseudomonas aeruginosa, read-out: P. aeruginosa MB5890 efflux-del (MIC), MHII broth; * = some reduction of growth versus control at […]. Format: cell-based.
Assay [5] concerns Streptococcus pneumoniae MB6357 (CL 2883). Description: Nargenicin antibacterial assay (MIC), S. pneumoniae. Format: cell-based. Conditions: Streptococcus pneumoniae.
[6] abbreviates: read-out: S. aureus DnaE IC50 (converted).
The mark [7] stands for this setting: read-out: S. pneumoniae MB2883 (MIC).
[8] abbreviates: read-out: S. pneumoniae MB2883 (MIC), Isosensitest broth, * = some reduction of growth versus control at […].

T1 sequence (P10443 whole entry, the tested form may be a part): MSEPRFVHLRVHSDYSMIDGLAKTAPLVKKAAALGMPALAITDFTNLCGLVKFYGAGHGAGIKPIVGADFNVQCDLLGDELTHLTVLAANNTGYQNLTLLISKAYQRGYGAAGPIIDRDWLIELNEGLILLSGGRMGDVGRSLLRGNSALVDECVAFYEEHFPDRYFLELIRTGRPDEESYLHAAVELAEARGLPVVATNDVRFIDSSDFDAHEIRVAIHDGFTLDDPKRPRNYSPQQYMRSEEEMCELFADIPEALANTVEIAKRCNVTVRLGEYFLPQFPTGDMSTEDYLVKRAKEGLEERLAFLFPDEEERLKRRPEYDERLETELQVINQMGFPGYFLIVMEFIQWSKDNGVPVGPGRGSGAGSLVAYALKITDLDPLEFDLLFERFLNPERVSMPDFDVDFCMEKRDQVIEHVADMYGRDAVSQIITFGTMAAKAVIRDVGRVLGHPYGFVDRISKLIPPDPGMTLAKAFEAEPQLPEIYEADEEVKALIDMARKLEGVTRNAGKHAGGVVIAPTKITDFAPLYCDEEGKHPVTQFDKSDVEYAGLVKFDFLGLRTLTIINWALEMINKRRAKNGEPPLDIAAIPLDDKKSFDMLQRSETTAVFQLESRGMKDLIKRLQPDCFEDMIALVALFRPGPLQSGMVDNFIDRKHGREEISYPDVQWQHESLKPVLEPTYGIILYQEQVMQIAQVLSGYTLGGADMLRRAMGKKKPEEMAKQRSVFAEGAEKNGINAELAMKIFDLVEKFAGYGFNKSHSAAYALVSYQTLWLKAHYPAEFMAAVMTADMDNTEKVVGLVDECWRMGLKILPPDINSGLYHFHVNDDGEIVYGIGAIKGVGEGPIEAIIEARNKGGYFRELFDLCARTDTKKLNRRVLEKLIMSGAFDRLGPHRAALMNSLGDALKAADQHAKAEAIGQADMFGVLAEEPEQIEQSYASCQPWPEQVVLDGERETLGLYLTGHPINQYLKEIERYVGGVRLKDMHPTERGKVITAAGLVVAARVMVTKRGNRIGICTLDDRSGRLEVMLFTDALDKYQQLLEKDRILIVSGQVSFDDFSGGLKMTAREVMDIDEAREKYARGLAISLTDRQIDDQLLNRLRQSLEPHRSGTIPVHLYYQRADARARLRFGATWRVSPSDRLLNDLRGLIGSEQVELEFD

Consider `CCOC(=O)O[C@H](C)[C@H]1OC(=O)[C@@H](OC)CC2C=C[C@H]3[C@H]4O[C@]2(/C(C)=C/[C@H]1C)[C@@H]3[C@H](O)[C@@H](C)[C@H]4OC(=O)c1ccc[nH]1` (stereo partly drawn) [Example 29], for which the half-maximal inhibitory concentration (IC50) was 76.6 µM in assay [1] and < 10.2 nM in assay [2] (setting [6]). The MIC was 8 µg/mL (≈ 13.6 µM) in assay [3], > 128 µg/mL in assay [4] and 16 µg/mL (≈ 27.2 µM) in assay [5] (setting [7]).
`CO[C@H]1C[C@H]2C=C[C@H]3[C@H]4O[C@]2(/C(C)=C/[C@@H](C)[C@@H]([C@@H](C)OC(=O)CBr)OC1=O)[C@@H]3[C@H](O)[C@@H](C)[C@H]4OC(=O)c1ccc[nH]1` [Example 56, (3R,4S,7S,8aS,10aR,11R,12R,13R,14R,14aS,14bS,E)-4-((R)-1-(2-bromoacetoxy)ethyl)-14-hydroxy-7-methoxy-1,3,13-trimethyl-6-oxo-3,4,6,7,8,8a,10a,11,12,13,14,14a-dodecahydro-11,14b-epoxynaphtho[2,1-e]oxecin-12-yl 1H-pyrrole-2-carboxylate]: the half-maximal inhibitory concentration (IC50) is 48.7 µM in assay [1] and < 9.43 nM in assay [2] (S. aureus DnaE IC50).
For `CO[C@H]1C[C@H]2C=C[C@H]3[C@H]4O[C@]2(/C(C)=C/[C@@H](C)[C@@H]([C@H](C)N2C(=O)c5ccccc5C2=O)OC1=O)[C@@H]3[C@H](O)[C@@H](C)[C@H]4OC(=O)c1ccc[nH]1` [Example 172], the concentration for half-maximal inhibition (IC50) in assay [1] was 63.6 µM; in assay [2] (setting [6]) it was ~7.76 nM. Also, the MIC in assay [3] is 16 µg/mL (≈ 24.8 µM); in assay [4] it was > 128 µg/mL; in assay [5] (setting [8]), > 128 µg/mL.
`CCN[C@H]1[C@H](C)[C@@H](O)[C@@H]2[C@H]3C=C[C@@H]4C[C@H](OC)C(=O)O[C@H]([C@@H](C)O)[C@H](C)/C=C(\C)[C@@]24O[C@H]31` [Example 147, (3R,4S,7S,8aS,10aR,11R,12S,13S,14R,14aS,14bS,E)-12-(ethylamino)-14-hydroxy-4-((R)-1-hydroxyethyl)-7-methoxy-1,3,13-trimethyl-3,4,8,8a,10a,11,12,13,14,14a-decahydro-11,14b-epoxynaphtho[2,1-e]oxecin-6(7H)-one]: the half-inhibitory concentration (IC50) is > 222 µM in assay [1] and 667 nM in assay [2] (setting [6]). Moreover, the MIC in assay [3], in assay [4] and in assay [5] (setting [8]) was > 128 µg/mL throughout.
As for `CO[C@H]1CC2C=C[C@H]3[C@H]4O[C@]2(/C(C)=C/[C@@H](C)[C@@H]([C@@H](C)OC(=O)OCCCO)OC1=O)[C@@H]3[C@H](O)[C@@H](C)[C@H]4OC(=O)c1ccc[nH]1` (stereo partly drawn) [Example 26, (3R,4S,7S,10aR,11R,12R,13R,14R,14aS,14bS,E)-14-hydroxy-4-((R)-1-(((3-hydroxypropoxy)carbonyl)oxy)ethyl)-7-methoxy-1,3,13-trimethyl-6-oxo-3,4,6,7,8,8a,10a,11,12,13,14,14a-dodecahydro-11,14b-epoxynaphtho[2,1-e]oxecin-12-yl 1H-pyrrole-2-carboxylate], the 50% inhibitory concentration (IC50) in assay [1] is 130 µM; in assay [2] (S. aureus DnaE IC50), < 9.71 nM.
Take `CO[C@H]1C[C@H]2C=C[C@H]3[C@H]4O[C@]2(/C(C)=C/[C@@H](C)[C@@H]([C@@H](C)O)OC1=O)[C@@H]3[C@H](O)[C@@H](C)[C@@H]4N1CCCC1` [Example 161, (3R,4S,7S,8aS,10aR,11R,12S,13S,14R,14aS,14bS,E)-14-hydroxy-4-((R)-1-hydroxyethyl)-7-methoxy-1,3,13-trimethyl-12-(pyrrolidin-1-yl)-3,4,8,8a,10a,11,12,13,14,14a-decahydro-11,14b-epoxynaphtho[2,1-e]oxecin-6(7H)-one]: the IC50 in assay [1] was > 105 µM; in assay [2] (setting [6]) it was 46300 nM. Besides, the MIC in assay [3], in assay [4] and in assay [5] (setting [7]) was > 64 µg/mL each time.
As for `CO[C@H]1C[C@H]2C=C[C@H]3[C@H]4O[C@]2(/C(C)=C/[C@@H](C)[C@@H]([C@@H](C)OCSC)OC1=O)[C@@H]3C(=O)[C@@H](C)[C@H]4OC(=O)c1ccc[nH]1` [Example 58], the half-maximal inhibitory concentration (IC50) in assay [1] is 36.6 µM; in assay [2] (setting [6]), > 174000 nM. Further, the MIC was > 8 µg/mL in assay [3], > 128 µg/mL in assay [4] and > 128 µg/mL in assay [5] (setting [8]).
For the compound `CO[C@H]1CC2C=C[C@H]3[C@H]4O[C@]2(/C(C)=C/[C@@H](C)[C@@H]([C@@H](C)OC(=O)NC(CO)(CO)CO)OC1=O)[C@@H]3[C@H](O)[C@@H](C)[C@H]4OC(=O)c1ccc[nH]1` (stereo partly drawn) [Example 22], the IC50 is > 151 µM in assay [1] and < 9.05 nM in assay [2] (setting [6]). The values for the MIC in assay [3], in assay [4] and in assay [5] (setting [7]) were 4 µg/mL (≈ 6.04 µM), 64 µg/mL (≈ 96.6 µM) and 64 µg/mL (≈ 96.6 µM), respectively.
Regarding `CCCNC(=O)O[C@H](C)[C@H]1OC(=O)[C@@H](OC)C[C@H]2C=C[C@H]3[C@H]4O[C@]2(/C(C)=C/[C@H]1C)[C@@H]3[C@H](O)[C@@H](C)[C@H]4OC(=O)c1ccc[nH]1` [Example 2, (3R,4S,7S,8aS,10aR,11R,12R,13R,14R,14aS,14bS,E)-14-hydroxy-7-methoxy-1,3,13-trimethyl-6-oxo-4-((R)-1-((propylcarbamoyl)oxy)ethyl)-3 ,4,6,7,8,8a,10a,11,12,13,14,14a-dodecahydro-11,14b-epoxynaphtho[2,1-e]oxecin-12-yl 1H-pyrrole-2-carboxylate], the half-inhibitory concentration (IC50) in assay [1] is 51.6 µM; in assay [2] (S. aureus DnaE IC50) it was 35 nM.
